± gives the expanded uncertainty stated by the source.
Legend:
[1] = Liquid; for vapor or sublimation pressure: Ebulliometric method (Recirculating still); for Normal boiling temperature: Distillation
[2] = refractive index (Na D-line) (dimensionless); conditions: 101.33 kPa, Liquid, Standard Abbe refractometry

Row | vapor or sublimation pressure ([1]; 422.25 K) [kPa] | vapor or sublimation pressure ([1]; 489.08 K) [kPa] | Normal boiling temperature [1] [°C] | refractive index ([2]; 298.15 K) | refractive index ([2]; 303.15 K) | vapor or sublimation pressure ([1]; 421.95 K) [kPa] | refractive index ([2]; 308.15 K) | SMILES
1 | 20 ± 1.5 |  |  |  |  |  |  | Cc1cccc(O)c1 [3-methylphenol]
2 |  | 20 ± 1.5 | 269.31 ± 2.2 | 1.4762 ± 0.0005 | 1.4751 ± 0.0005 |  |  | OCCNCCO [diethanolamine]
3 |  |  | 201.70 ± 2.2 |  | 1.5295 ± 0.0005 | 20 ± 1.5 | 1.5288 ± 0.0005 | Cc1ccc(O)cc1 [4-methylphenol]
